From US11739074B2, “Ras inhibitors” (Revolution Medicines, Inc., priority 2019, dated 2023)
pEC50, pIC50: −log10 of the molar value. Like-named read-outs stand apart in the source and are kept apart here.

How the values were obtained:
AsPC-1 (K-Ras G12D) [1] = test: Potency assay: pERK in AsPC-1 cells; format: cell-based; details: Homo sapiens
AsPC-1 (K-Ras G12D) [2] = test: CellTiter-Glo cell viability assay, AsPC-1; format: cell-based; details: Homo sapiens, ASPC1, 120 h
Method: Determination of Cell Viability in RAS Mutant Cancer Cell Lines
Protocol: CellTiter-Glo® Cell Viability Assay
Note—The following protocol describes a procedure for monitoring cell viability of K-Ras mutant cancer cell lines in response to a compound of the invention. Other RAS isoforms may be employed, though the number of cells to be seeded will vary based on cell line used.
Test compounds (132.5 nL) were directly dispensed into the assay plates containing cells. […] On day 5, assay plates and their contents were equilibrated to room temperature for approximately 30 minutes. […] Luminescence was measured using the PerkinElmer Enspire. Data were normalized by the following: (Sample signal/Avg. DMSO)*100. The data were fit using a four-parameter logistic fit.

[3] = ASPC1, read-out: pERK EC50 (AsPC-1 KRAS G12D)
[4] = read-out: AsPC-1 Cell Viability IC50, AsPC-1, K-Ras G12D, 5-day treatment
[5] = ASPC1, AsPC-1 cells, K-Ras G12D, read-out: pERK EC50 (AsPC-1 KRAS G12D)
[6] = AsPC-1, K-Ras G12D, 5-day treatment, read-out: AsPC-1 Cell Viability IC50

SMILES | pEC50 (AsPC-1 (K-Ras G12D) [1]; [3]) | pIC50 (AsPC-1 (K-Ras G12D) [2]; [4]) | pEC50 (AsPC-1 (K-Ras G12D) [1]; [5]) | pIC50 (AsPC-1 (K-Ras G12D) [2]; [6])
CCn1c(-c2cccnc2[C@H](C)OC)c2c3cc(ccc31)-c1cc(O)cc(c1)C[C@H](NC(=O)[C@H](C(C)C)N(C)C(=O)CN(C)C(=O)[C@H]1N[C@@H]1C1COC1)C(=O)N1CCC[C@H](N1)C(=O)OCC(C)(C)C2 [Compound 284] | > 5.30 | 5.00 to 6.00 | – | –
CCn1c(-c2cccnc2[C@H](C)OC)c2c3cc(ccc31)-c1cc(O)cc(c1)C[C@H](NC(=O)[C@H](C(C)C)N(C)C(=O)N(C)CCN(C)C(=O)[C@H]1CN1)C(=O)N1CCC[C@H](N1)C(=O)OCC(C)(C)C2 [Compound 204] | – | – | > 5.30 | 5.00 to 6.00
CCn1c(-c2cccnc2[C@H](C)OC)c2c3cc(ccc31)-c1cc(O)cc(c1)C[C@H](NC(=O)[C@H](C(C)C)N(C)C(=O)C13CC(CN1C(=O)[C@@H]1CN1)C3)C(=O)N1CCC[C@H](N1)C(=O)OCC(C)(C)C2 [Compound 163] | – | – | > 5.30 | 5.00 to 6.00
CCn1c(-c2cccnc2[C@H](C)OC)c2c3cc(ccc31)-c1cc(O)cc(c1)C[C@H](NC(=O)[C@H](C(C)C)N(C)C(=O)C1CCN(C(=O)[C@H]3CN3)CC1)C(=O)N1CCC[C@H](N1)C(=O)OCC(C)(C)C2 [Compound 86] | – | – | > 5.30 | 5.00 to 6.00
CCn1c(-c2cccnc2[C@H](C)OC)c2c3cc(ccc31)-c1cc(O)cc(c1)C[C@H](NC(=O)[C@H](C(C)C)N(C)C(=O)CN(C)C(=O)[C@H]1CN1CCO)C(=O)N1CCC[C@H](N1)C(=O)OCC(C)(C)C2 (some centres unmarked) [Compound 161] | > 5.30 | 5.00 to 6.00 | – | –
CCn1c(-c2cccnc2[C@H](C)OC)c2c3cc(ccc31)-c1csc(n1)C[C@H](NC(=O)[C@H](C(C)C)N(C)C(=O)N1CC[C@H](N(C)C(=O)[C@@H]3CN3)C1)C(=O)N1CCC[C@H](N1)C(=O)OCC(C)(C)C2 [Compound 229] | – | – | > 5.30 | 5.00 to 6.00
CCn1c(-c2cccnc2[C@H](C)OC)c2c3cc(ccc31)-c1cc(O)cc(c1)C[C@H](NC(=O)[C@H](C(C)C)N(C)C(=O)N1CCCN(C(=O)[C@H]3CN3)CC1)C(=O)N1CCC[C@H](N1)C(=O)OCC(C)(C)C2 [Compound 190] | – | – | > 5.30 | 5.00 to 6.00
CCn1c(-c2cccnc2[C@H](C)OC)c2c3cc(ccc31)-c1cc(O)cc(c1)C[C@H](NC(=O)[C@H](C(C)C)N(C)C(=O)C1CCN(S(=O)(=O)[C@H]3CN3C)CC1)C(=O)N1CCC[C@H](N1)C(=O)OCC(C)(C)C2 (single isomer, unassigned) [Compound 108] | – | – | > 5.30 | 5.00 to 6.00
CCn1c(-c2cccnc2[C@H](C)OC)c2c3cc(ccc31)-c1cc(O)cc(c1)C[C@H](NC(=O)[C@H](C(C)C)N(C)C(=O)[C@H]1CCCN1C(=O)[C@H]1CN1)C(=O)N1CCC[C@H](N1)C(=O)OCC(C)(C)C2 [Compound 152] | > 5.30 | 5.00 to 6.00 | – | –
CCn1c(-c2cccnc2[C@H](C)OC)c2c3cc(ccc31)-c1cc(O)cc(c1)C[C@H](NC(=O)[C@H](C(C)C)N(C)C(=O)[C@@H]1CCN(C(=O)[C@@H]3CN3)C1)C(=O)N1CCC[C@H](N1)C(=O)OCC(C)(C)C2 [Compound 172] | – | – | > 5.30 | 5.00 to 6.00
CCn1c(-c2cccnc2[C@H](C)OC)c2c3cc(ccc31)-c1cc(O)cc(c1)C[C@H](NC(=O)[C@H](C(C)C)N(C)C(=O)[C@@H]1CCCN(C(=O)[C@H]3CN3)C1)C(=O)N1CCC[C@H](N1)C(=O)OCC(C)(C)C2 [Compound 237] | – | – | > 5.30 | 5.00 to 6.00
CCn1c(-c2cccnc2[C@H](C)OC)c2c3cc(ccc31)-c1csc(n1)C[C@H](NC(=O)[C@H](C(C)C)N(C)C(=O)N(C)C1CN(C(=O)[C@H]3CN3)C1)C(=O)N1CCC[C@H](N1)C(=O)OCC(C)(C)C2 [Compound 220] | – | – | > 5.30 | 5.00 to 6.00
CCn1c(-c2cccnc2[C@H](C)OC)c2c3cc(ccc31)-c1cccc(c1)C[C@H](NC(=O)[C@H](C(C)C)N1CC[C@@H](CN=C=NCCOC)C1)C(=O)N1CCC[C@H](N1)C(=O)OCC(C)(C)C2 [Compound 121] | – | – | > 5.30 | 5.00 to 6.00
